In ChEMBL document CHEMBL4152357, “Efflux pump inhibition by 11H-pyrido[2,1-b]quinazolin-11-one analogues in mycobacteria” (Bioorg Med Chem, 2018):
Converted amounts (≈) assume the structure as drawn. The source made the active and inactive calls. The calls are words filed in the database; no cut-off is given here.

Columns and labels:
[1] = tested on: Mycolicibacterium smegmatis; experiment: Growth inhibition of Mycobacterium smegmatis MC2 155 ATCC 700084 after 72 hrs by MTT assay; format: organism-based
[2] = biological target: T1, Multidrug efflux pump LfrA (Mycobacterium smegmatis (strain ATCC 700084 / mc(2)155)) (UniProt A0R5K5); experiment: Inhibition of LfrA in Mycobacterium smegmatis MC2 155 ATCC 700084 assessed as decrease in EtBr MIC at 100 ug/ml after 72 hrs by MTT assay relative to control; conditions: Mycolicibacterium smegmatis MC2 155
T1 sequence (whole entry): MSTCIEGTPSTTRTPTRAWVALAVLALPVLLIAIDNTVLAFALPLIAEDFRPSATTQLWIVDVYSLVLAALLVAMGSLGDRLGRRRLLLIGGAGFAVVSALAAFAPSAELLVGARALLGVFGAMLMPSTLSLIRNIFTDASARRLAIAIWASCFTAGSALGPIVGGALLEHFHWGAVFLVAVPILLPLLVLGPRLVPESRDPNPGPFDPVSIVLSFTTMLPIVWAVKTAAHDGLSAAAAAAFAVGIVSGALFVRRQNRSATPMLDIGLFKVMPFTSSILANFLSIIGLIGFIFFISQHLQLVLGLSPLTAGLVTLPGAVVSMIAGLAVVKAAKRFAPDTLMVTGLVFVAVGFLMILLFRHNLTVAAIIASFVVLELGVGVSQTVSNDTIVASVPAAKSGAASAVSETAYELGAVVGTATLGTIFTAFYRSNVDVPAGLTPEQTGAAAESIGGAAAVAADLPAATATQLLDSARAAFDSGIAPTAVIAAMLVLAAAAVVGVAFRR

[3] = biological target: T1, Multidrug efflux pump LfrA (Mycobacterium smegmatis (strain ATCC 700084 / mc(2)155)); experiment: Inhibition of LfrA in Mycobacterium smegmatis MC2 155 ATCC 700084 assessed as decrease in norfloxacin MIC at 25 ug/ml after 72 hrs by MTT assay relative to control; conditions: Mycolicibacterium smegmatis MC2 155
[4] = biological target: T1, Multidrug efflux pump LfrA (Mycobacterium smegmatis (strain ATCC 700084 / mc(2)155)); experiment: Inhibition of LfrA in Mycobacterium smegmatis MC2 155 ATCC 700084 assessed as decrease in EtBr MIC at 0.78 ug/ml after 72 hrs by MTT assay relative to control; conditions: Mycolicibacterium smegmatis MC2 155
[5] = biological target: T1, Multidrug efflux pump LfrA (Mycobacterium smegmatis (strain ATCC 700084 / mc(2)155)); experiment: Inhibition of LfrA in Mycobacterium smegmatis MC2 155 ATCC 700084 assessed as decrease in EtBr MIC at 16 ug/ml after 72 hrs by MTT assay relative to control; conditions: Mycolicibacterium smegmatis MC2 155
[6] = biological target: T1, Multidrug efflux pump LfrA (Mycobacterium smegmatis (strain ATCC 700084 / mc(2)155)); experiment: Inhibition of LfrA in Mycobacterium smegmatis MC2 155 ATCC 700084 assessed as decrease in norfloxacin MIC at 0.0004 ug/ml after 72 hrs by MTT assay relative to control; conditions: Mycolicibacterium smegmatis MC2 155
[7] = biological target: T1, Multidrug efflux pump LfrA (Mycobacterium smegmatis (strain ATCC 700084 / mc(2)155)); experiment: Inhibition of LfrA in Mycobacterium smegmatis MC2 155 ATCC 700084 assessed as increase in EtBr accumulation at 12.5 ug/ml measured every 5 mins for 35 mins by fluorometric analysis; conditions: Mycolicibacterium smegmatis MC2 155
[8] = biological target: T1, Multidrug efflux pump LfrA (Mycobacterium smegmatis (strain ATCC 700084 / mc(2)155)); experiment: Inhibition of LfrA in Mycobacterium smegmatis MC2 155 ATCC 700084 assessed as increase in norfloxacin accumulation at 12.5 ug/ml measured every 5 mins for 35 mins by fluorometric analysis; conditions: Mycolicibacterium smegmatis MC2 155
[9] = biological target: T1, Multidrug efflux pump LfrA (Mycobacterium smegmatis (strain ATCC 700084 / mc(2)155)); experiment: Inhibition of LfrA in Mycobacterium smegmatis MC2 155 ATCC 700084 assessed as potentiation of EtBr-induced bactericidal activity at 2 ug/ml after 24 hrs; conditions: Mycolicibacterium smegmatis MC2 155
[10] = biological target: T1, Multidrug efflux pump LfrA (Mycobacterium smegmatis (strain ATCC 700084 / mc(2)155)); experiment: Inhibition of LfrA in Mycobacterium smegmatis MC2 155 ATCC 700084 assessed as potentiation of EtBr-induced bactericidal activity at 2 ug/ml after 48 hrs; conditions: Mycolicibacterium smegmatis MC2 155
[11] = tested on: CC-1; experiment: Cytotoxicity against rat CC1 cells assessed as decrease in cell survival at 200 ug/ml after 24 hrs by Alamar blue reduction assay relative to control; format: cell-based; conditions: cc-1, 24 h
[12] = Cytotoxicity against rat CC1 cells assessed as cell survival at 100 ug/ml after 24 hrs by Alamar blue reduction assay relative to control; format: cell-based, CC-1; conditions: read-out: Survival
[13] = Cytotoxicity against rat CC1 cells assessed as cell survival at 50 ug/ml after 24 hrs by Alamar blue reduction assay relative to control; format: cell-based, CC-1; conditions: read-out: Survival
[14] = biological target: T1, Multidrug efflux pump LfrA (Mycobacterium smegmatis (strain ATCC 700084 / mc(2)155)); experiment: Inhibition of LfrA in Mycobacterium smegmatis MC2 155 ATCC 700084 assessed as increase in EtBr accumulation at 25 ug/ml measured every 5 mins for 35 mins by fluorometric analysis; conditions: Mycolicibacterium smegmatis MC2 155
[15] = biological target: T1, Multidrug efflux pump LfrA (Mycobacterium smegmatis (strain ATCC 700084 / mc(2)155)); experiment: Inhibition of LfrA in Mycobacterium smegmatis MC2 155 ATCC 700084 assessed as increase in EtBr accumulation at 50 ug/ml measured every 5 mins for 35 mins by fluorometric analysis; conditions: Mycolicibacterium smegmatis MC2 155
[16] = biological target: T1, Multidrug efflux pump LfrA (Mycobacterium smegmatis (strain ATCC 700084 / mc(2)155)); experiment: Inhibition of LfrA in Mycobacterium smegmatis MC2 155 ATCC 700084 assessed as increase in norfloxacin accumulation at 25 ug/ml measured every 5 mins for 35 mins by fluorometric analysis; conditions: Mycolicibacterium smegmatis MC2 155
[17] = biological target: T1, Multidrug efflux pump LfrA (Mycobacterium smegmatis (strain ATCC 700084 / mc(2)155)); experiment: Inhibition of LfrA in Mycobacterium smegmatis MC2 155 ATCC 700084 assessed as potentiation of norfloxacin-induced bactericidal activity at 25 ug/ml after 24 to 48 hrs; conditions: Mycolicibacterium smegmatis MC2 155
[18] = biological target: T1, Multidrug efflux pump LfrA (Mycobacterium smegmatis (strain ATCC 700084 / mc(2)155)); experiment: Inhibition of LfrA in Mycobacterium smegmatis MC2 155 ATCC 700084 assessed as decrease in norfloxacin MIC at 12.5 ug/ml after 72 hrs by MTT assay relative to control; conditions: Mycolicibacterium smegmatis MC2 155
[19] = biological target: T1, Multidrug efflux pump LfrA (Mycobacterium smegmatis (strain ATCC 700084 / mc(2)155)); experiment: Inhibition of LfrA in Mycobacterium smegmatis MC2 155 ATCC 700084 assessed as potentiation of norfloxacin-induced bactericidal activity at 100 ug/ml after 48 hrs; conditions: Mycolicibacterium smegmatis MC2 155
[20] = biological target: T1, Multidrug efflux pump LfrA (Mycobacterium smegmatis (strain ATCC 700084 / mc(2)155)); experiment: Inhibition of LfrA in Mycobacterium smegmatis MC2 155 ATCC 700084 assessed as potentiation of norfloxacin-induced bactericidal activity at 12.5 ug/ml after 48 hrs; conditions: Mycolicibacterium smegmatis MC2 155
[21] = biological target: T1, Multidrug efflux pump LfrA (Mycobacterium smegmatis (strain ATCC 700084 / mc(2)155)); experiment: Inhibition of LfrA in Mycobacterium smegmatis MC2 155 ATCC 700084 assessed as potentiation of EtBr-induced bactericidal activity at 100 ug/ml after 24 hrs; conditions: Mycolicibacterium smegmatis MC2 155
[22] = biological target: T1, Multidrug efflux pump LfrA (Mycobacterium smegmatis (strain ATCC 700084 / mc(2)155)); experiment: Inhibition of LfrA in Mycobacterium smegmatis MC2 155 ATCC 700084 assessed as potentiation of EtBr-induced bactericidal activity at 100 ug/ml after 48 hrs; conditions: Mycolicibacterium smegmatis MC2 155

SMILES	MIC [1]	fold change (FC) [2]	fractional inhibitory concentration index (FICI) [2]	fold change (FC) [3]	fractional inhibitory concentration index (FICI) [3]	Activity [11]	viability at 24 h, 100 ug/ml [12]	viability at 24 h, 50 ug/ml [13]	inhibition [14]	Activity [15]	Activity [16]	further results
O=c1c2cccc(Cl)c2nc2c3ccccc3ccn12	200 µg/mL (≈ 712 µM)	2	1	4	0.37	–	–	–	–	–	–	–
Cc1ccn2c(=O)c3cc(Br)ccc3nc2c1	200 µg/mL (≈ 692 µM)	–	–	4	0.37	–	–	–	–	–	–	fold change (FC) [4]: 2; fractional inhibitory concentration index (FICI) [4]: 0.3
N#CC(C#N)=NNc1cccc(Cl)c1 [CARBONYL CYANIDE M-CHLOROPHENYLHYDRAZONE]	25 µg/mL (≈ 122 µM)	–	–	–	–	–	–	–	–	–	–	fold change (FC) [5]: 2; fractional inhibitory concentration index (FICI) [5]: 0.5; fold change (FC) [6]: 32; fractional inhibitory concentration index (FICI) [6]: 0.03; inhibition [7]: Active; Activity [8]: 1000 FU
Cc1cccn2c(=O)c3cccc(Cl)c3nc12	200 µg/mL (≈ 817 µM)	8	0.62	4	0.37	> 50%	42%	40%	Active	400 FU	–	Activity (deltalog10CFU/ml) [9]: 7; Activity (deltalog10CFU/ml) [10]: > 3; inhibition [16]: Active
O=c1c2cccc(Cl)c2nc2ccccn12	200 µg/mL (≈ 867 µM)	–	–	8	0.25	> 50%	99%	100%	–	–	3000 FU	Activity (deltalog10CFU/ml) [17]: > 3
O=c1c2cccc(F)c2nc2ccccn12	200 µg/mL (≈ 934 µM)	–	–	–	–	> 50%	93%	96%	–	–	3000 FU	fold change (FC) [4]: 2; fractional inhibitory concentration index (FICI) [4]: 0.3; fold change (FC) [18]: 16; fractional inhibitory concentration index (FICI) [18]: 0.12; Activity (deltalog10CFU/ml) [19]: 4; Activity (deltalog10CFU/ml) [20]: 4
O=c1c2ccccc2nc2c(F)cc(F)cn12	200 µg/mL (≈ 861 µM)	16	0.5	–	–	> 50%	52%	80%	Active	> 255 FU	–	fold change (FC) [18]: 4; fractional inhibitory concentration index (FICI) [18]: 0.3; inhibition [21]: Active
O=c1c2ccccc2nc2ccccn12	200 µg/mL (≈ 1020 µM)	8	0.62	8	0.25	> 50%	70%	86%	inactive	< 150 FU	2000 FU	Activity (deltalog10CFU/ml) [17]: > 3; inhibition [21]: Active; inhibition [22]: Active
COc1ccc(CCN(C)CCCC(C#N)(c2ccc(OC)c(OC)c2)C(C)C)cc1OC (stereo not given) [VERAPAMIL]	300 µg/mL (≈ 660 µM)	–	–	–	–	–	–	–	–	–	–	–
